Experimental data reported in ChEMBL document CHEMBL5329150, “STING antagonists, synthesized via Povarov-Doebner type multicomponent reaction” (RSC Med Chem, 2023).

Molecular target: Cyclic GMP-AMP synthase (Mus musculus, UniProt Q8C6L5)
Test: Inhibition of mouse cGAS by ATP consumption assay

Chain of Cyclic GMP-AMP synthase (Q8C6L5 whole entry): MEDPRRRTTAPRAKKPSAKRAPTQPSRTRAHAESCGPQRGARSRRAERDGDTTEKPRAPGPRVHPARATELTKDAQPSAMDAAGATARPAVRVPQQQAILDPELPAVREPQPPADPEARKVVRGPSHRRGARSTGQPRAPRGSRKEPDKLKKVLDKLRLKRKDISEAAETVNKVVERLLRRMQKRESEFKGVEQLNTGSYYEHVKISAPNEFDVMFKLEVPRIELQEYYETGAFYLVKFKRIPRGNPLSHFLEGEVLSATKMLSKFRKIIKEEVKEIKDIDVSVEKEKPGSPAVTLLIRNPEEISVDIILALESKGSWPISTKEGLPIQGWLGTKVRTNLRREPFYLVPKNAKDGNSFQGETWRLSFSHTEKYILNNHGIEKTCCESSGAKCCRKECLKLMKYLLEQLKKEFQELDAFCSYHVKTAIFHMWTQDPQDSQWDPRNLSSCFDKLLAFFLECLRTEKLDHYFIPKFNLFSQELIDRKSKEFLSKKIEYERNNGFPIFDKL

IC50: 270 nM
SMILES: CCn1nc(C)cc1C(=O)Nc1nc2cc(C(N)=O)cc(OC)c2n1C/C=C/Cn1c(NC(=O)c2cc(C)nn2CC)nc2cc(C(N)=O)cc(OCCCN3CCOCC3)c21
